# Reference: patent publication US20250339399A1, “SUPRAMOLECULAR SELF-ASSEMBLY SYSTEM” (Beijing Creatron Institute of Pharmaceutical Research Co., …, priority 2022, published 2025)
# Read-outs that look alike come from different tables or passages of the source.
# Columns and labels:
# [1] = prost derivatives; 37° C.; cited from earlier work
# [2] = cited from earlier work; for Log P: prost derivatives, Table 31 (relevant information)
# [3] = Binary supramolecular self-assembly systems of polymer and target: guest concentration over incubation time (Comparative Example 2); format: physicochemical
# Experimental: Experiments were conducted according to the steps in Comparative Example 1, and quantitative analysis was carried out using the analytical method for each target to investigate the regulation ability […] stacking.
# [4] = Guest molecule concentration after incubation in initial medium without polymer (Comparative Example 1); format: physicochemical; settings: 37° C.
# Method in brief: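 Dissolved guest content measured by HPLC of centrifuged supernatants (37° C., 13000 rpm, 5 min) sampled at 0.5 h, 3 h and 6 h. Incubation was polymer-free at 37° C.±0.5° C. in buffers of pH 2.0-7.4; nominal loading was set by maximum clinical dose.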
# [5] = Binary (carrier), ternary and quaternary supramolecular self-assembly systems of polymer, carrier building block and target: guest concentration over incubation time (Examples 1-56); format: physicochemical
# Method in brief: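 Targets were incubated at 37 °C in pH 2.0–7.4 buffers with 0.5% polymer alone or with carrier building blocks, after 0.5 h sonication for ternary systems, and shaken at 200 rpm. Samples at 0.5–6 h were centrifuged and diluted ≥10-fold, and dissolved target was quantified by HPLC; surfactant was added if needed.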
# [6] = cited from earlier work
# [7] = Comparative Example 3: systems with 10% (W/V) natural building block; format: physicochemical; settings: Comparative Example 3: 10% 319; 6 h
# Experimental: An initial medium of each above target molecule was used to prepare a solution containing 10% Rubusoside A (313) or 10% (W/V) Mogroside V (319), the solution was sonicated at 37° C. to prepare a solution containing about 100 mg/mL building block 313 or 319 per 1 mL of the initial medium, the clear medium containing the natural building blocks was incubated in a 37° C. constant temperature air bath shaker for 1 hour, and subsequent operations and sample detection followed the steps of Comparative Examples 1 and 2. Considering that each natural building block had different UV absorption and was added at a high concentration, the more specific HPLC method was still used for quantitative determination on the solution concentration of each guest molecule, […].
# [8] = binary system with 0.5% polymer 101, incubation 0.5 h
# [9] = binary system with 0.5% polymer 101, incubation 3 h
# [10] = binary system with 0.5% polymer 101, incubation 6 h
# [11] = binary system with 0.5% polymer 102, incubation 0.5 h
# [12] = binary system with 0.5% polymer 102, incubation 3 h
# [13] = binary system with 0.5% polymer 102, incubation 6 h
# [14] = binary system with 0.5% polymer 103, incubation 0.5 h
# [15] = binary system with 0.5% polymer 103, incubation 3 h
# [16] = binary system with 0.5% polymer 103, incubation 6 h
# [17] = binary system with 0.5% polymer 106, incubation 0.5 h
# [18] = binary system with 0.5% polymer 106, incubation 3 h
# [19] = binary system with 0.5% polymer 106, incubation 6 h
# [20] = binary system with 0.5% polymer 107, incubation 0.5 h
# [21] = binary system with 0.5% polymer 107, incubation 3 h
# [22] = binary system with 0.5% polymer 107, incubation 6 h
# [23] = binary system with 0.5% polymer 110, incubation 0.5 h
# [24] = binary system with 0.5% polymer 110, incubation 3 h
# [25] = binary system with 0.5% polymer 110, incubation 6 h
# [26] = quaternary: 0.05% 314 + 0.25% 201, 6 h
# [27] = quaternary: 0.05% 314 + 0.25% 202, 6 h
# [28] = quaternary: 0.05% 314 + 0.25% 203, 6 h
# [29] = quaternary: 0.05% 314 + 0.25% 204, 6 h
# [30] = quaternary: 0.05% 314 + 0.25% 205, 6 h
# [31] = ternary: 0.25% 102H + 0.1% 319, 6 h
# [32] = ternary: 0.25% 102H + 1.0% 319, 6 h
# [33] = ternary: 0.25% 102M + 0.5% 302, 6 h
compound,measurement,setting,value
"CCNC(=O)CCC/C=C\C[C@@H]1[C@@H](/C=C/[C@@H](O)CCc2ccccc2)[C@H](O)C[C@@H]1O [Bimatoprost, bimatoprost]",Intrinsic solubility,[1],0.05 mg/mL
same,Log P,[2],2.65
C=C(C)[C@@H]1CCC(C)=C[C@H]1c1c(O)cc(CCCCC)cc1O [Cannabidiol],Concentration of the target in the solution measured after different incubation time,[3]; [8],282.6 µg/mL
same,Concentration of the target in the solution measured after different incubation time,[3]; [9],293.7 µg/mL
same,Concentration of the target in the solution measured after different incubation time,[3]; [10],342.5 µg/mL
same,Concentration of the target in the solution measured after different incubation time,[3]; [11],307.3 µg/mL
same,Concentration of the target in the solution measured after different incubation time,[3]; [12],323.6 µg/mL
same,Concentration of the target in the solution measured after different incubation time,[3]; [13],333.1 µg/mL
same,Concentration of the target in the solution measured after different incubation time,[3]; [14],54.8 µg/mL
same,Concentration of the target in the solution measured after different incubation time,[3]; [15],55.1 µg/mL
same,Concentration of the target in the solution measured after different incubation time,[3]; [16],55.7 µg/mL
same,Concentration of the target in the solution measured after different incubation time,[3]; [17],148.1 µg/mL
same,Concentration of the target in the solution measured after different incubation time,[3]; [18],149.4 µg/mL
same,Concentration of the target in the solution measured after different incubation time,[3]; [19],155.7 µg/mL
same,Concentration of the target in the solution measured after different incubation time,[3]; [20],109.6 µg/mL
same,Concentration of the target in the solution measured after different incubation time,[3]; [21],97.2 µg/mL
same,Concentration of the target in the solution measured after different incubation time,[3]; [22],95.7 µg/mL
same,Concentration of the target in the solution measured after different incubation time,[3]; [23],168.9 µg/mL
same,Concentration of the target in the solution measured after different incubation time,[3]; [24],8.6 µg/mL
same,Concentration of the target in the solution measured after different incubation time,[3]; [25],7.3 µg/mL
same,Concentration of guest molecule in solution,"[3]; binary: 0.25% 101, 6 h",342.5 µg/mL
same,Times that of the initial medium,"[3]; binary: 0.25% 101, 6 h",40 times
same,Concentration of guest molecule in solution,"[3]; binary: 0.25% 103E3, 6 h",55.7 µg/mL
same,Concentration of guest molecule in solution,"[3]; binary: 0.25% 106 (K30), 6 h",155.7 µg/mL
same,Times that of the initial medium,"[3]; binary: 0.25% 106 (K30), 6 h",18 times
same,Concentration of guest molecule measured after different incubated time,"[4]; 0.5 h, 0.05% SDS in pH 6.8 phosphate buffer",11.4 µg/mL
same,Concentration of guest molecule measured after different incubated time,"[4]; 3 h, 0.05% SDS in pH 6.8 phosphate buffer",11.8 µg/mL
same,Concentration of guest molecule measured after different incubated time,"[4]; 6 h, 0.05% SDS in pH 6.8 phosphate buffer",8.5 µg/mL
same,Concentration of guest molecule in solution,[5]; [26],732.2 µg/mL
same,Times that of the initial medium,[5]; [26],86 times
same,Concentration of guest molecule in solution,[5]; [27],399.4 µg/mL
same,Times that of the initial medium,[5]; [27],47 times
same,Concentration of guest molecule in solution,[5]; [28],648.3 µg/mL
same,Times that of the initial medium,[5]; [28],76 times
same,Concentration of guest molecule in solution,[5]; [29],725.0 µg/mL
same,Times that of the initial medium,[5]; [29],85 times
same,Concentration of guest molecule in solution,[5]; [30],581.7 µg/mL
same,Times that of the initial medium,[5]; [30],68 times
same,Concentration of guest molecule in solution,"[5]; ternary: 102M + 0.1% 310, 6 h",580.1 µg/mL
same,Concentration of guest molecule in solution,"[5]; ternary: 102M + 0.25% 310, 6 h",481.2 µg/mL
same,Concentration in the system,"[6]; 200 mM methyl-beta-cyclodextrin, literature",25500 µg/mL
same,Best result reported by the literature (concentration),[6]; International Journal of Pharmaceutics 589 (2020) 119812,150 µg/mL
same,Concentration in the system,"[6]; about 5-10 mM methyl-beta-cyclodextrin, literature curve",lower than 1 mg/mL
same,LogD7.4 or Log P,[2],6.32
COc1cc(/C=C/C(=O)CC(=O)/C=C/c2ccc(O)c(OC)c2)ccc1O [Curcumin],Concentration of the target in the solution measured after different incubation time,[3]; [8],219.7 µg/mL
same,Concentration of the target in the solution measured after different incubation time,[3]; [9],120.1 µg/mL
same,Concentration of the target in the solution measured after different incubation time,[3]; [10],50.3 µg/mL
same,Concentration of the target in the solution measured after different incubation time,[3]; [11],747.8 µg/mL
same,Concentration of the target in the solution measured after different incubation time,[3]; [12],643.4 µg/mL
same,Concentration of the target in the solution measured after different incubation time,[3]; [13],576.7 µg/mL
same,Concentration of the target in the solution measured after different incubation time,[3]; [14],76.1 µg/mL
same,Concentration of the target in the solution measured after different incubation time,[3]; [15],52.9 µg/mL
same,Concentration of the target in the solution measured after different incubation time,[3]; [16],32.7 µg/mL
same,Concentration of the target in the solution measured after different incubation time,[3]; [17],102.6 µg/mL
same,Concentration of the target in the solution measured after different incubation time,[3]; [18],118.1 µg/mL
same,Concentration of the target in the solution measured after different incubation time,[3]; [19],90.3 µg/mL
same,Concentration of the target in the solution measured after different incubation time,[3]; [20],107.4 µg/mL
same,Concentration of the target in the solution measured after different incubation time,[3]; [21],8.3 µg/mL
same,Concentration of the target in the solution measured after different incubation time,[3]; [22],7.7 µg/mL
same,Concentration of the target in the solution measured after different incubation time,[3]; [23],6.0 µg/mL
same,Concentration of the target in the solution measured after different incubation time,[3]; [24],8.3 µg/mL
same,Concentration of the target in the solution measured after different incubation time,[3]; [25],10.0 µg/mL
same,Concentration of guest molecule in solution,"[3]; binary: 0.25% 102M, 2 h",962.6 µg/mL
same,Concentration of guest molecule in solution,"[3]; binary: 0.25% 102M, 6 h",6.4 µg/mL
same,Concentration of guest molecule in solution,"[3]; binary: 0.5% 102M, 6 h",576.6 µg/mL
same,Times that of the initial medium,"[3]; binary: 0.5% 102M, 6 h",67 times
same,Concentration of guest molecule measured after different incubated time,"[4]; 0.5 h, pH 6.8 phosphate buffer",1.7 µg/mL
same,Concentration of guest molecule measured after different incubated time,"[4]; 3 h, pH 6.8 phosphate buffer",9.4 µg/mL
same,Concentration of guest molecule measured after different incubated time,"[4]; 6 h, pH 6.8 phosphate buffer",8.6 µg/mL
same,Concentration of guest molecule in solution,"[5]; quaternary: 0.25% 204 (102M+103E5) + 302, 6 h",34.2 µg/mL
same,Concentration of guest molecule in solution,[5]; [31],676.6 µg/mL
same,Times that in Comparative Example 3,[5]; [31],81.5 times
same,Concentration of guest molecule in solution,[5]; [32],516.3 µg/mL
same,Times that in Comparative Example 3,[5]; [32],62.2 times
same,Concentration of guest molecule in solution,"[5]; ternary: 0.25% 102M + 0.05% 314, 0.5 h",140.0 µg/mL
same,Concentration of guest molecule in solution,"[5]; ternary: 0.25% 102M + 0.05% 314, 6 h",5.2 µg/mL
same,Concentration of guest molecule in solution,"[5]; ternary: 0.25% 102M + 0.1% 314, 4 h",1036.7 µg/mL
same,Concentration of guest molecule in solution,[5]; [33],862.1 µg/mL
same,Times that of the initial medium,[5]; [33],100.6 times
same,Concentration of guest molecule in solution,"[5]; ternary: 0.25% 102M + 1.0% or 1.5% 314, 0.5 h-4.0 h",~1000 µg/mL
same,Concentration of guest molecule in solution,"[5]; ternary: 0.25% 102M + 1.0% or 1.5% 314, 6 h",900 µg/mL
same,Concentration of guest molecule in solution,"[5]; ternary: 102H + 313, 4 h",about 609.8 μg/mL
same,Concentration of guest molecule in solution,"[5]; ternary: 102H + 317, 4 h",~638.6 µg/mL
same,LogP,[2],4.12
same,Concentration of guest molecule in solution,[7],8.3 µg/mL
"CC(C)OC(=O)CCC/C=C\C[C@@H]1[C@@H](CC[C@@H](O)CCc2ccccc2)[C@H](O)C[C@@H]1O [Latanoprost, latanoprost]",Intrinsic solubility,[1],0.03 mg/mL
same,Log P,[2],3.98
